Assay results taken from US11033547B2, “Carboxamide-pyrimidine derivatives as SHP2 antagonists” (Merck Patent GmbH, priority 2019, dated 2021).
Structures can show the parent of a compound that is named as a salt. Where two headings read alike, the source gives them in different places.

Tests used:
[1] = molecular target: Kv11.1 (hERG) ion channel (Homo sapiens (Human), UniProt Q12809); assay type: cell-based; settings: ratio of hERG Ki (patch clamp) to pERK IC50 in KYSE520
Method: Inhibition of the ion channel hErg (or Kv11.1) current causes QT interval prolongation resulting in potentially fatal ventricular tachyarrhythmia called Torsade de Pointes.
hERG ion channel activity was assessed using a patch clamp technique in stable Kv11.1 (hERG) transfected human embryonic kidney cell line (HEK293). Whole cell recordings were carried out with an automated patch clamp device Patchliner™ from Nanion Technologies, Munich following manufacturer recommendation. Different concentrations of the test compound or reference, quinidine, were applied to whole cells suspension and current was measured using a pulse pattern with fixed amplitudes.

[2] = molecular target: T1, auto-activated mutant protein SHP2 E76K (Homo sapiens (Human), UniProt Q06124, E76K); assay: SHP2 E76K mutant biochemical assay with activating peptide IRSI_2pY; settings: SHP2 E76K mutant with activating peptide IRSI_2pY 140 nM; read-out: SHP-2 E76Z IC50 peptide
T1 sequence (Q06124 whole entry E76K): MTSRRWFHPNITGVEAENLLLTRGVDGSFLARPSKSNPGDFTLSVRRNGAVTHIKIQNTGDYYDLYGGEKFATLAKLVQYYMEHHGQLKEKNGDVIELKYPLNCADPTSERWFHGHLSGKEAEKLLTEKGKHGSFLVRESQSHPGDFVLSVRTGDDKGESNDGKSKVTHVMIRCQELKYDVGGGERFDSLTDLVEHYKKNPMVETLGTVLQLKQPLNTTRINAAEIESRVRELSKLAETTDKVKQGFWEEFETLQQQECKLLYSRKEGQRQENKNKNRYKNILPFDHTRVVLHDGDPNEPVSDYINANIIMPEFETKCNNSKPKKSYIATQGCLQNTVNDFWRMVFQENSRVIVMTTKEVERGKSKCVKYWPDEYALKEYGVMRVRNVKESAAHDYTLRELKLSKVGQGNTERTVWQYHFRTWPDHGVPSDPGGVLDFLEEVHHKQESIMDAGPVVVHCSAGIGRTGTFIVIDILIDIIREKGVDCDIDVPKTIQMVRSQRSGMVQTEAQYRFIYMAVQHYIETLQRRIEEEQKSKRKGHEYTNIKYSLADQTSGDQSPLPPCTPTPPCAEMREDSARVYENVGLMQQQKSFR
Method: (§1) The inhibition of SHP2 by compounds of the invention was monitored using the surrogate substrate DiFMUP after protein activation by a peptide bearing two appropriately spaced phosphotyrosine. Full length SHP2 protein (Recombinant HumanSHP-2, E. coli derived Ser2Arg593, N-terminal 6His tag from R&D systems; […]) was incubated with activating peptide, IRSI_2pY (New England Peptide, 140 nM) and DiFMUP (molecular probes, 80 uM) at RT in buffer (HEPES pH 7.2 60 mM, DDT 5 mM, KCl 75 mM, NaCl 75 mM, EDTA 1 mM, Tween 20 0.05%) in presence of compound (10 concentrations range, top concentration 50 μM) for 60 min. The generation of the DiFMU product by activated SHP2 was monitored through Fluorescence measurement with a PerkinElmer Envision reader.
(§2) A selection of compounds has been tested in a biochemical assay using same conditions as described in example 3, but with an auto-activated mutant protein SHP2 E76K with and without the addition of the activating peptide IRSI_2pY (New England Peptide, 140 nM).

[3] = molecular target: T1, auto-activated mutant protein SHP2 E76K; assay: SHP2 E76K mutant biochemical assay without activating peptide; settings: no activating peptide, read-out: SHP-2 E76Z IC50 No peptide
Method: as §1, §2

[4] = molecular target: Full length SHP2 protein (Recombinant Human SHP-2) (Homo sapiens, UniProt Q06124); assay: SHP2 biochemical assay (DiFMUP substrate, activating peptide IRSI_2pY)
Full length SHP2 protein (Recombinant Human SHP-2), sequence (Q06124 2-593 limits assumed): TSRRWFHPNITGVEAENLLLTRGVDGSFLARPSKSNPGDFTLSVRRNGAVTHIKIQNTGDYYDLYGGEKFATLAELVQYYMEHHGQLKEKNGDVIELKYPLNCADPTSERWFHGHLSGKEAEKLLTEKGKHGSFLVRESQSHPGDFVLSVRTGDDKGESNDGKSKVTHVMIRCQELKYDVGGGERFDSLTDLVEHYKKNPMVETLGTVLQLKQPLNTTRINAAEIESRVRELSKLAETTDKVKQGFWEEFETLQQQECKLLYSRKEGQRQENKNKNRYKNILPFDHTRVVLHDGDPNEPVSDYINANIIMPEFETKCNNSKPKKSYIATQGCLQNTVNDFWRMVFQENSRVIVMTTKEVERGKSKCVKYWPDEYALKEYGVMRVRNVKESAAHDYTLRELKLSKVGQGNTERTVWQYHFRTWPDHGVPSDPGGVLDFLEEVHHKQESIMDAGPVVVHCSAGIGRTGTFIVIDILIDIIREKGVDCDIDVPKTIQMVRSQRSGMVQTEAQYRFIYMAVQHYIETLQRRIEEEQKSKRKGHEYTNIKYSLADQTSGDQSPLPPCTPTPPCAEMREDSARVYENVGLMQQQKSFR
Method: The inhibition of SHP2 by compounds of the invention was monitored using the surrogate substrate DiFMUP after protein activation by a peptide bearing two appropriately spaced phosphotyrosine. […] The generation of the DiFMU product by activated SHP2 was monitored through Fluorescence measurement with a PerkinElmer Envision reader.
The inhibitor dose response curves were analyzed with Genedata Screener.

[5] = tested on: pERK level in KYSE520 cells; assay: p-Erk cellular assay in KYSE520 (Mesoscale); assay type: cell-based; settings: 2 h incubation, read-out: pERK1/2 in KYSE520 IC50
Method: (§3) p-Erk Cellular Assay in MDA-MB-468 and KYSE520:
(§4) The effect of SHP2 inhibitors on pERK level was assessed using phospho-specific antibody using Mesoscale quantification platform. For measuring change in pERK levels using mesoscale, 30,000 cells of MDA MB468 and KYSE520 cells were plated in 96-well tissue culture treated plate in 175 ul volume of media. After an overnight incubation at 37° C., various SHP2 inhibitors were added in different concentration to each well maintaining duplicate wells across plates and incubated with compounds for 2 h at 37° C. followed by a wash with ice cold PBS buffer. The cells were then lysed in lysis buffer and processed and analyzed for p-ERK/ERK as per manufacturer's instructions (Mesoscale discovery, cat No. K15107D-3).

[6] = tested on: pERK level in MDA-MB-468 cells; assay: p-Erk cellular assay in MDA-MB-468 (Mesoscale); assay type: cell-based; settings: 2 h incubation, read-out: pERK1/2 in MDA-MB-468 IC50
Method: as §3, §4

[7] = DiFMUP substrate, activating peptide IRSI_2pY, 60 min at RT, read-out: SHP-2 Biochemical assay IC50

Kv11.1 (hERG) ion channel, sequence (Q12809 whole entry): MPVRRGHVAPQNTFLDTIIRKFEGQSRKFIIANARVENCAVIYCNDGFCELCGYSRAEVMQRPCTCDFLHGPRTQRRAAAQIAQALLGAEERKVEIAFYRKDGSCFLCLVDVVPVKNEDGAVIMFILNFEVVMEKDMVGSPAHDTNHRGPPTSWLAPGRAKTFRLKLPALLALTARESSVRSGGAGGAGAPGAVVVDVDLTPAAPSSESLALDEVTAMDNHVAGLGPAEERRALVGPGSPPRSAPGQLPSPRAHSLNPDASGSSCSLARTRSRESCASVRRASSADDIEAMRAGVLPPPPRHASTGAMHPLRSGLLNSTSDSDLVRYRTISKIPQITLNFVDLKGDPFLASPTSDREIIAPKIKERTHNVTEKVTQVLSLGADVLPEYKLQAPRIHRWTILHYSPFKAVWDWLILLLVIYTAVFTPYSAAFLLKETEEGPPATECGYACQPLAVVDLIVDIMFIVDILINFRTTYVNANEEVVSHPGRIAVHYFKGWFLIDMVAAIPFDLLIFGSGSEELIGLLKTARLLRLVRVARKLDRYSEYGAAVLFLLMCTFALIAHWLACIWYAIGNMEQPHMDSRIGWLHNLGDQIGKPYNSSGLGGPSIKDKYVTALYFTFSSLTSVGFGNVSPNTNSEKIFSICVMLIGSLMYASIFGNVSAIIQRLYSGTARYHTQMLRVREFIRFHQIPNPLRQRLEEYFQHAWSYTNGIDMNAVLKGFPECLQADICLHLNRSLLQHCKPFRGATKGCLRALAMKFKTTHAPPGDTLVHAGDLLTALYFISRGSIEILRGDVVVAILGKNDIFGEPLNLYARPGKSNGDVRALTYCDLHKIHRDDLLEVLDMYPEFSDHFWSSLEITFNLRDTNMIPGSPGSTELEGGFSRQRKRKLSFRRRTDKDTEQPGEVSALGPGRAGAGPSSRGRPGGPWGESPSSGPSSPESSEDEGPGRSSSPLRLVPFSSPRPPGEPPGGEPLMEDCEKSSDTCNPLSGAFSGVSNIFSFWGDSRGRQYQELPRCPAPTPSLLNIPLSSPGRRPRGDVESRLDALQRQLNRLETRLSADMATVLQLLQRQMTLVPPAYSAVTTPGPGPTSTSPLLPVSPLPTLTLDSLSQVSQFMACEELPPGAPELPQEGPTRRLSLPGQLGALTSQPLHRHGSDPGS

Row | IC50 [6] | IC50 [5] | Structure (SMILES) | Split between hErg and cell activity Ki(patch Clamp)/IC50 (KYSE) [1] | IC50 [2] | IC50 [3] | IC50 [4, 7] | IC50 ([4]; wild-type SHP-2 with activating peptide, read-out: SHP-2 IC50 peptide) | IC50 ([5]; Homo sapiens, KYSE-520, 2 h) | IC50 ([6]; Homo sapiens, MDA-MB-468, 2 h)
1 |  |  | Cc1nc(N2CCC3(CC2)Cc2ccccc2[C@H]3N)nc(C(N)=O)c1-c1cccc(Cl)c1Cl (atropisomer, axis not shown; (M)) [Compound 119, (M)-2-[(1S)-1-amino-1,3-dihydrospiro[indene-2,4′-piperidin]-1′-yl]-5-(2,3-dichlorophenyl)-6-methylpyrimidine-4-carboxamide] | 97 |  |  |  |  |  | 
2 |  |  | NC(=O)c1nc(N2CCC3(CC2)Cc2ccccc2[C@H]3N)nc(N)c1-c1cccc(Cl)c1Cl (single isomer, unassigned) [Compound 117] | >50 | 1.1 nM | 0.5 nM | 1 nM | 0.4 nM |  | 
3 |  |  | NC(=O)c1nc(N2CCC3(CC2)Cc2scnc2[C@H]3N)nc(N)c1-c1cccc(Cl)c1Cl [Compound 121, 6-amino-2-[(4S)-4-amino-4,6-dihydrospiro[cyclopenta[d][1,3]thiazole-5,4′-piperidin]-1′-yl]-5-(2,3-dichlorophenyl)pyrimidine-4-carboxamide] | >600 |  |  | 2 nM |  | 16 nM | 
4 |  |  | NC(=O)c1nc(N2CCC3(CC2)Oc2ccccc2[C@H]3N)nc(N)c1-c1cccc(Cl)c1Cl [Compound 123, 6-amino-2-((R)-3-amino-3H-spiro[benzofuran-2,4′-piperidin]-1′-yl)-5-(2,3-dichlorophenyl)pyrimidine-4-carboxamide di-hydrochloride] | >100 |  |  | 15 nM |  | 58 nM | 
5 | 346 nM | 754 nM | CC1(N)CCN(c2nc(N)c(-c3cccc(Cl)c3Cl)c(C(N)=O)n2)CC1 [Compound No. 3, 6-Amino-2-(4-amino-4-methyl-piperidin-1-yl)-5-(2,3-dichlorophenyl)-pyrimidine-4-carboxylic Acid Amide] | >14 |  |  | 160 nM |  |  | 
6 |  |  | C[C@@H]1OCC2(CCN(c3nc(N)c(-c4cccc(Cl)c4Cl)c(C(N)=O)n3)CC2)[C@@H]1N [Compound No. 5, 6-amino-2-[(3S,4S)-4-amino-3-methyl-2-oxa-8-azaspiro[4.5]decan-8-yl]-5-(2,3-dichlorophenyl)pyrimidine-4-carboxamide] | >10 |  |  | 72 nM |  | 1090 nM | 1010 nM
